Reference: patent publication US20060252807A1, “Novel ortho-terphenyl inhibitors of p38 kinase and methods of treating inflammatory disorders” (Kalypsys, Inc., priority 2005, published 2006)

biological target: T1, active p38 alpha enzyme (Upstate Biotechnology) (Homo sapiens, UniProt Q16539); assay: p38α biochemical assay (ATP turnover, luminescent detection, Cambrex PKlight); conditions: p38α kinase; Table 1 Biological Activity
T1 construct: purchased Upstate Biotechnology
How it was run: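 In this kinase reaction, p38α used MapkapK2 as phosphorylation substrate at low ATP (1.4 uM final) over 2 hours at 30C, and activity was followed as ATP turnover by luminescence.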

T1 sequence (Q16539 whole entry): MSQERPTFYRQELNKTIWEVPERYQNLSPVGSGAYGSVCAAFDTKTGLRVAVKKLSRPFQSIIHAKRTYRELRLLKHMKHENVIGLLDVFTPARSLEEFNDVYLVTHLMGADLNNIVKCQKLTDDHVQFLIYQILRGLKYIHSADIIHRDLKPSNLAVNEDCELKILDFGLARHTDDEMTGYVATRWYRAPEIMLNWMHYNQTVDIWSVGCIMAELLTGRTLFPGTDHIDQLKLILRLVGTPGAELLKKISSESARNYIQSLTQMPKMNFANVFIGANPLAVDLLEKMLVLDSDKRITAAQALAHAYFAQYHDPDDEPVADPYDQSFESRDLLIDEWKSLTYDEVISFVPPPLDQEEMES

IC50, > 1000 nM:
CC(C)NC(=O)c1csc(-c2c(-c3ccc(F)cc3)noc2CN2CCN(c3cccc(C(F)(F)F)c3)CC2)n1 [Example 1623]
CC(C)NC(=O)c1csc(-c2c(-c3ccc(F)cc3)noc2CN2CCN(c3ccc(Cl)c(Cl)c3)CC2)n1 [Example 1624]
CC(C)NC(=O)c1csc(-c2c(-c3ccc(F)cc3)noc2CN2CCN(c3ccc(C(F)(F)F)cn3)CC2)n1 [Example 1626]
CC(C)NC(=O)c1csc(-c2c(-c3ccc(F)cc3)noc2CN2CCN(c3ccccc3Cl)CC2)n1 [Example 1627]
COc1ccc(N2CCN(Cc3onc(-c4ccc(F)cc4)c3-c3nc(C(=O)NC(C)C)cs3)CC2)cc1OC [Example 1628]
CC(C)NC(=O)c1csc(-c2c(-c3ccc(F)cc3)noc2CN2CCCC(c3ccc(C(F)(F)F)cc3)C2)n1 (stereo not drawn) [Example 1629]
CC(C)NC(=O)c1csc(-c2c(-c3ccc(F)cc3)noc2CNc2ccccc2)n1 [Example 1630]
Cc1cccc(NCc2onc(-c3ccc(F)cc3)c2-c2nc(C(=O)NC(C)C)cs2)c1 [Example 1631]
Cc1ccc(NCc2onc(-c3ccc(F)cc3)c2-c2nc(C(=O)NC(C)C)cs2)cc1 [Example 1632]
Cc1ccccc1NCc1onc(-c2ccc(F)cc2)c1-c1nc(C(=O)NC(C)C)cs1 [Example 1633]
Cc1ccc(NCc2onc(-c3ccc(F)cc3)c2-c2nc(C(=O)NC(C)C)cs2)nc1 [Example 1634]
Cc1cccc(NCc2onc(-c3ccc(F)cc3)c2-c2nc(C(=O)NC(C)C)cs2)n1 [Example 1635]
Cc1ccnc(NCc2onc(-c3ccc(F)cc3)c2-c2nc(C(=O)NC(C)C)cs2)c1 [Example 1636]
Cc1cccnc1NCc1onc(-c2ccc(F)cc2)c1-c1nc(C(=O)NC(C)C)cs1 [Example 1637]
CC(C)NC(=O)c1csc(-c2c(-c3ccc(F)cc3)noc2CNc2ccccc2F)n1 [Example 1638]
CC(C)NC(=O)c1csc(-c2c(-c3ccc(F)cc3)noc2CNc2ccc(F)cc2)n1 [Example 1639]
Cc1ccc(C)c(NCc2onc(-c3ccc(F)cc3)c2-c2nc(C(=O)NC(C)C)cs2)c1 [Example 1640]
Cc1ccc(NCc2onc(-c3ccc(F)cc3)c2-c2nc(C(=O)NC(C)C)cs2)cc1C [Example 1641]
CCc1ccccc1NCc1onc(-c2ccc(F)cc2)c1-c1nc(C(=O)NC(C)C)cs1 [Example 1642]
Cc1cccc(NCc2onc(-c3ccc(F)cc3)c2-c2nc(C(=O)NC(C)C)cs2)c1C [Example 1644]
Cc1ccc(NCc2onc(-c3ccc(F)cc3)c2-c2nc(C(=O)NC(C)C)cs2)c(C)c1 [Example 1645]
Cc1cc(C)cc(NCc2onc(-c3ccc(F)cc3)c2-c2nc(C(=O)NC(C)C)cs2)c1 [Example 1646]
COc1cccc(NCc2onc(-c3ccc(F)cc3)c2-c2nc(C(=O)NC(C)C)cs2)c1 [Example 1647]
COc1ccc(NCc2onc(-c3ccc(F)cc3)c2-c2nc(C(=O)NC(C)C)cs2)cc1 [Example 1648]
COc1ccccc1NCc1onc(-c2ccc(F)cc2)c1-c1nc(C(=O)NC(C)C)cs1 [Example 1649]
COc1ccncc1NCc1onc(-c2ccc(F)cc2)c1-c1nc(C(=O)NC(C)C)cs1 [Example 1650]
Cc1ccc(NCc2onc(-c3ccc(F)cc3)c2-c2nc(C(=O)NC(C)C)cs2)cc1F [Example 1651]
